These are literature values, as cited in patent US8557301B2, “Oral rehydration composition” (Drip Drop, Inc., priority 2011, dated 2013).

The subject of this data set is net sodium and water absorption.

For the compound `O=C(CO)[C@@H](O)[C@H](O)[C@H](O)CO` [fructose], the “effect on potassium transport” value is “stimulates potassium absorption”. Besides, the “net sodium and water absorption stimulated, as much as glucose” value (relative to glucose) is on record as 66-100%.
